As usually defined, the Cmax is the peak of the concentration-time curve. What is called Tmax is the time at which the peak concentration occurs. The half-life is the time needed for the level to fall by half in the phase considered.

SMILES strings stand for the structures.

This is an account of results in article PMC9964503, “Effects of Apigenin on Pharmacokinetics of Dasatinib and Probable Interaction Mechanism” (Molecules, 2023).

For one data set, the system named is Pgp/MDR1. Description: Hepatic and intestinal Pgp/MDR1 protein expression (immunoblot). Type of data set: in vivo, rats. The protocol:
(§1) The animals were categorized into four groups (n = 6) and fasted for 12 h before the experiment. […] orally administered with normal saline for 7 days and Group II was orally administered DAS (25 mg/kg) on the 7th day. Group III was co-administered DAS with APG for 7 days and DAS (25 mg/kg p.o.) on the 7th day, 2 h after APG 40 mg/kg administration, and Group IV was administered with APG 40 mg/kg for 7 days. The blood was collected from the tail vein at various time points after DAS administration and subjected to centrifugation at 5000× g for 10 min to obtain plasma for DAS quantification using ultra pressure liquid chromatography with mass. At the end of the experiment, all animals were euthanized using carbon dioxide, and liver and intestine tissues were harvested and for Western blotting.
(§2) A PierceTM BCA Protein Assay Kit (Thermo Fisher Scientific) was used to extract the total protein from the hepatic and intestinal tissues by bicinchoninic acid technique. Immunoblots were executed as per the methods of Towbin et al. (1979) with slight modification. Briefly, 10% SDS polyacrylamide gels were used to electrophorese 25 μg of hepatic and intestinal epithelial proteins. These proteins were then transferred to activated PVDF membranes and blocked with 4% skim milk and BSA in TBST. After that, membranes were treated with antibodies for CYP3A2 isozymes, active transporters P-glycoprotein/MDR1, BCRP/ABCG2, and β-actin protein expression for an overnight period (4 °C). The membrane strips were incubated with the suitable secondary antibodies for 2 h after repeated washing steps with 1% TBST and TBS (room temperature). The membrane strips were then washed four times with TBST for five minutes each time. Bands were developed using Luminata™ Western Chemiluminescent HRP Substrates (Millipore), followed by densitometric evaluation of the immunoblots.
For orientation: A western blot detects proteins with antibodies after separation by electrophoresis.

The subject of a further data set is CYP3A2. Description: Hepatic and intestinal CYP3A2 protein expression (immunoblot). It is filed as in vivo, rats. The protocol: as §1, §2
The test system of a further data set is BCRP/ABCG2. As to the kind of experiment: Hepatic and intestinal BCRP/ABCG2 protein expression (immunoblot). It is filed as in vivo, rats. The procedure: as §1, §2
Data set [1] can be described thus: Pharmacokinetics of oral DAS in rats with or without APG pretreatment (UPLC-MS/MS, non-compartmental). It is filed as in vivo. Particulars: DAS in rat plasma, DAS 25 mg/kg p.o., alone or after APG 40 mg/kg p.o. for 7 days, mean ± SD. The protocol: The Central Animal House facility of College of Pharmacy, King Saud University’s, Riyadh, Saudi Arabia, provided 24 healthy adult male Wistar rats (weighing 211–223 g), and the experiment was authorized by the Animal Ethics Committee of the College of Pharmacy, King Saud University (KSU-SE-21-58). All animals were retained in polypropylene cages: 6 animals were caged (n = 6) per cage with a 12-h light/dark cycle, at 25 °C in humane conditions with free access to food and water and adapted to the living conditions one week prior to experiment
as §1
Using UHPLC-MS/MS, DAS concentrations in rat plasma samples were determined. A mixture of DAS and IBR (internal standard) was separated on an Acquity BEH C18 column, and both compounds were eluted at a flow rate of 0.25 mL/min from a mobile phase consisting of acetonitrile, 0.1% formic acid, and 20mM ammonium acetate (95:5). The entire duration of the study was about 2.5 min. The auto-sampler was kept at 10 °C, while the column oven was kept at a constant 40 °C. Electrospray ionization was used to ionize samples in a positive direction. […] Multiple reaction monitoring (MRM) mode detection and quantitation of analyte (DAS) and IS (IBR) employed the precursor to product ion transition of 488.06 and gt; 401.1 and 441.16 and gt; 84.04, respectively. Capillary voltage was 3.4 kV, source temperature was 150 °C, and desolvation temperature was 350 °C for optimum sample ionization using MS/MS. A flow rate of 600 L/h of nitrogen gas was utilized for the desolvation process, whereas a flow rate of 0.18 mL/min of argon gas was used for the collision process. The analyte and IS cone voltages were 46 V and 48 V, and the collision energy was 28 eV and 40 eV, respectively. Precision and accuracy were partially confirmed for the assay using the “US Food and Drug Administration 2018 guideline for bioanalytical technique validation,” and found to be within acceptable ranges of 15% both intra- and inter-day. The samples were acquired using Masslynx 4.1 SCN 805, and then processed using TargetLynks. After making a few modifications to a previously reported study, it was put to use.
A plasma sample of 150 µL was aliquoted into an Eppendorf tube, along with 20 µL of a spiked internal standard (250 ng/mL), and 1 mL of ethyl acetate was also added for the extraction phase. For 10 min at 4 °C and 10,500 rpm, centrifuged samples were shaken for 15 min after being vortexed. Finally, 800 µL of the organic upper layer were transferred to an Eppendorf tube and dried in a sample concentrator at room temperature. Following reconstitution with 150 µL of acetonitrile, the dried residue was transported to UHPLC-MS/MS for 5 µL of analysis.
PK Solver software was employed to calculate the pharmacokinetic parameters using non-compartmental model. The calculated parameters were as follows: half-life (T1/2), elimination rate constant (Kel), time to maximum concentration (Tmax), the maximum concentration (Cmax), area under concentration time curve (AUC), the area under the moment curve (AUMC); the volume of distribution (Vd), the mean residence time (MRT), and clearance (Cl) were examined.

Where [2] appears, read: intestine, APG 40 mg/kg only pretreatment vs normal rats.
Setting [3] is: liver, APG 40 mg/kg only pretreatment vs normal rats.
Setting [4] is: intestine, DAS peroral vs normal rats.
The mark [5] stands for this setting: liver, DAS peroral vs normal rats.

As to `O=c1cc(-c2ccc(O)cc2)oc2cc(O)cc(O)c12` [APG, 4′,5,7-trihydroxyflavone], the “inhibition of intestinal Pgp/MDR1 protein expression” value in the data set on Pgp/MDR1 (setting [2]) is 87.84%. Besides, the “inhibition of hepatic Pgp/MDR1 protein expression” value in the data set with Pgp/MDR1 (setting [3]) worked out at 90.67%. For the same compound, the “inhibition of intestinal CYP3A2 protein expression” value in the data set on CYP3A2 (setting [2]) was 90.97%. In the data set on CYP3A2 (setting [3]), the “inhibition of hepatic CYP3A2 protein expression” value came to 87.24%. Also, the “inhibition of intestinal BCRP/ABCG2 protein expression” value in the data set on BCRP/ABCG2 (setting [2]) came to 91.50%. In the data set on BCRP/ABCG2 (setting [3]), the “inhibition of hepatic BCRP/ABCG2 protein expression” value came out at 91.05%.

On to `Cc1nc(Nc2ncc(C(=O)Nc3c(C)cccc3Cl)s2)cc(N2CCN(CCO)CC2)n1` [DAS, Dasatinib], for which the “induction of intestinal Pgp/MDR1 protein expression” value in the data set with Pgp/MDR1 (setting [4]) was determined as 91.65%. For the same compound, the “induction of hepatic Pgp/MDR1 protein expression” value with Pgp/MDR1 (setting [5]) amounted to 93.08%. The “increase of intestinal CYP3A2 protein expression” value in the data set with CYP3A2 (intestine, DAS administered rats vs normal control rats) was found to be 79.13%. Besides, in data set [1], the AUC0-t was 1635.84 ± 45.29 ng·h/mL, the AUMC0-inf_obs was 16200.10 ± 1656.57 ng/mL × h^2, the Cl is reported as 0.012 ± 0.0005 (mg/kg)/(ng/mL)/h and the Cmax is given as 263.06 ± 12.33 ng/mL. For the same compound, in data set [1], the Vd was 0.087 ± 0.005 (mg/kg)/(ng/mL). In data set [1] (male, Wistar, po), the Tmax was 1 h, the half-life was 4.97 ± 0.48 h and the k el is 3.89e-05 s⁻¹. Also, the AUC(0-inf) in data set [1] (male, Wistar, po, read-out: AUC0-inf_obs) is 2060 ± 97 ng·h/mL. The MRT inf in data set [1] (male, Wistar, po, read-out: MRT 0-inf_obs) is 7.84 ± 0.46 h. In the data set on BCRP/ABCG2 (setting [4]), the “induction of intestinal BCPR/ABCG2 protein expression” value is on record as 95.66%. In the data set on BCRP/ABCG2 (setting [5]), the “induction of hepatic BCPR/ABCG2 protein expression” value came out at 92.55%.
